Measured values taken from PubChem BioAssay (NCI).
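Following 48 hours of exposure in 96-well plates, responses at five concentrations were used to interpolate endpoints linearly. GI50: concentration for 50% inhibition of growth. TGI denotes the concentration required for complete inhibition of growth.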

Columns and labels:
Assay in all cases: NCI anticancer screen, dose series, 48 h
HOP-62 NSCLC = tested on: HOP-62 NSCLC
HOP-92 NSCLC = tested on: HOP-92 NSCLC
KM12 colon = tested on: KM12 colon
SK-MEL-5 melanoma = tested on: SK-MEL-5 melanoma
SNB-19 CNS = tested on: SNB-19 CNS
SR leukemia = tested on: SR leukemia
TK-10 renal = tested on: TK-10 renal
UACC-257 melanoma = tested on: UACC-257 melanoma
UACC-62 melanoma = tested on: UACC-62 melanoma
MDA-MB-435 = tested on: MDA-MB-435

Row | Compound | TGI (HOP-62 NSCLC) [µM] | TGI (HOP-92 NSCLC) [µM] | TGI (KM12 colon) [µM] | TGI (SK-MEL-5 melanoma) [µM] | TGI (SNB-19 CNS) [µM] | TGI (SR leukemia) [µM] | TGI (TK-10 renal) [µM] | TGI (UACC-257 melanoma) [µM] | TGI (UACC-62 melanoma) [µM] | GI50 (HOP-62 NSCLC) [µM] | GI50 (KM12 colon) [µM] | GI50 (MDA-MB-435) [nM] | TGI (MDA-MB-435) [µM] | GI50 (SK-MEL-5 melanoma) [nM] | GI50 (SR leukemia) [nM] | GI50 (TK-10 renal) [µM] | GI50 (UACC-257 melanoma) [µM] | GI50 (UACC-62 melanoma) [nM] | GI50 (HOP-92 NSCLC) [µM] | GI50 (SNB-19 CNS) [nM]
1 | Cc1cc(C)cc(Sc2c([N+](=O)[O-])ncn2C)c1 | > 100 | 41.7 | 53.8 | 26.7 | > 100 | 41 | 72.4 | 27.7 | 29.8 | – | – | – | – | – | – | – | – | – | – | –
2 | O=C1/C(=C\c2coc3ccccc3c2=O)c2ccccc2N1c1c(Cl)cccc1Cl | > 100 | – | 68.5 | > 100 | – | 56.4 | > 100 | > 100 | > 100 | 4.77 | 3.06 | 2700 | 9.69 | 2440 | 1440 | 3.29 | 4.59 | 2130 | – | –
3 | Cc1cc(NS(=O)(=O)c2ccc(NC(=O)c3cccc4c(Nc5ccc(S(=O)(=O)Nc6cc(C)on6)cc5)c5ccccc5nc34)cc2)no1 | > 100 | 41 | > 100 | > 100 | 88.7 | – | – | > 100 | 35 | – | – | – | – | – | – | – | – | – | – | –
4 | Cc1cc(-c2nc(-c3ccc(OC(F)(F)F)cc3)no2)nn1Cc1ccnc(N2CCN(C3CC3)CC2)c1 | – | 81.4 | > 91.9 | 2.45 | > 100 | > 74 | > 100 | > 55.4 | > 49.1 | – | 6.88 | 2340 | > 59 | < 10 | – | 11.2 | 2.84 | 4230 | 1.55 | > 23100
5 | O=C(O)C1CCCCN1C(=O)c1ccccc1 (stereo unspecified) | > 100 | > 100 | > 100 | > 100 | > 100 | > 100 | > 100 | > 100 | > 100 | – | – | – | – | – | – | – | – | – | – | –
6 | CCC[CH2][Sn]([CH2]CCC)([O]C(=O)c1nccnc1N)[O]C(=O)c1nccnc1N | 3.57 | 2.43 | 2.74 | 2.49 | 2.69 | 2.35 | 2.02 | 2.23 | 2.16 | 2.12 | 1.42 | – | – | 1240 | 294 | 0.742 | 1.03 | 998 | 1.16 | 1400
7 | O=C(Nc1ccccc1Br)c1cccc([N+](=O)[O-])c1O | 9.79 | 4.99 | 19.3 | 5.11 | > 100 | 33 | 12.6 | 10.1 | 16.4 | – | – | – | – | – | – | – | – | – | – | –
8 | C=C(C)[C@@H]1CCC2=C[C@@H](OC2=O)[C@@H](C(=C)C)C(=O)/C=C(/C)C(=O)C1 | > 100 | 58.2 | 63.7 | 39.4 | > 100 | – | 90.9 | > 100 | 61.1 | 36.2 | 24.8 | 38800 | > 100 | 18600 | – | 31.3 | 58.3 | 24800 | 17.4 | 33800
9 | CC[O-].Cc1ccc2cccc([O-])c2n1.Cc1ccc2cccc([O-])c2n1.Cc1ccc2cccc([O-])c2n1.[Ti+4] | > 100 | > 100 | 74.8 | 52 | > 100 | – | > 83.9 | > 85 | > 52.2 | 53.6 | 20.9 | – | – | 22600 | – | 44.2 | 18.6 | > 35300 | > 100 | > 53900
10 | N#CC(C#N)=CSc1ccccc1 | > 100 | > 100 | > 100 | > 100 | > 100 | > 100 | > 100 | > 100 | 82.2 | – | – | – | – | – | – | – | – | – | – | –
11 | N#CCC(=O)N/N=C1\C(=O)N(c2ccc(Cl)cc2)C(=O)C(=O)C1c1nc2ccccc2o1 (stereo unspecified) | > 100 | > 100 | > 100 | > 100 | > 100 | > 100 | > 100 | > 100 | > 100 | – | – | – | – | – | – | – | – | – | – | –
12 | CCOC(=O)C1=C(C)NC2SC(=O)/C(=C\c3ccccc3)N2C1c1ccccc1 (stereo unspecified) | > 100 | > 100 | > 100 | > 100 | > 100 | – | > 100 | > 100 | > 100 | > 100 | 73.7 | > 100000 | > 100 | 16100 | – | 56.2 | > 100 | > 100000 | > 100 | > 100000
13 | CC1=C([Se]CC(OC(=O)[C@@H](CO)NC(=O)OC(C)(C)C)C(=O)NC(C)(C)C)C(=O)c2ccccc2C1=O (stereo partly specified) | 1.86 | 3.43 | 2.89 | 2.97 | 2 | – | 3.44 | 3.23 | 3.05 | 0.53 | 1.5 | 2010 | 4.1 | 1590 | – | 1.98 | 1.74 | 1660 | 1.88 | 660
14 | CN1c2ccccc2S(=O)(=O)n2c(COc3ccc(Cl)cc3)nnc21 | 47.8 | 63.2 | > 100 | > 100 | > 100 | – | > 100 | > 100 | > 100 | – | – | – | > 100 | – | – | – | – | – | – | –
15 | CC1(C)C(=S)C(C)(C)C1=S | > 100 | – | > 100 | > 100 | > 100 | > 100 | > 100 | > 100 | > 100 | – | – | – | > 100 | – | – | – | – | – | – | –
16 | COc1ccc(Cc2cnc(NC(=O)c3sc4ccccc4c3Cl)s2)cc1 | > 100 | > 100 | > 100 | 3.56 | > 100 | > 100 | > 100 | > 100 | > 100 | 0.513 | 0.383 | – | – | 335 | 310 | 4.31 | 25.7 | 468 | 5.26 | 461
17 | CCN(CC)CCNC(=O)c1cccc2cc3ccccc3nc12 | 36.9 | 27.8 | 36.6 | 17.1 | 64.7 | – | 31.8 | – | 15.9 | – | – | – | – | – | – | – | – | – | – | –
